How the values were obtained:
[1] = system: thromboxane A2 (TXA2); experiment: rabbit aortal strip model, test (a), using the TXA2 mimetic U46619 as agonist; format: cell-based
Excerpt: (a) The rabbit aortal strip model devised by Piper and Vane (Nature. […]. 223, 29-35) using as agonist the TXA2 mimetic agent known as U46619 (R. L. Jones et alia in "Chemistry, Biochemistry and Pharmacological Activity of Prostanoids", eds. S. M. Roberts and F. Scheinman, at p.211, Pergamon Press, 1979);

[2] = system: hypertensive effect of TXA2 mimetic agent U46619; experiment: hypertensive effect of U46619 in anaesthetised rats, test (d); format: in vivo, rats (Alderley Park strain); conditions: Rattus norvegicus, iv; intravenously via the jugular vein, anaesthetised male rats, blood pressure at carotid artery, n=3; read-out: ED50 (dose necessary to produce 50% of the maximum hypertensive effect)
Method: (d) Male rats (Alderley Park strain) are anaesthetised with sodium pentobarbital and blood pressure is monitored at the carotid artery. The TXA2 mimetic agent known as U46619 is administered intravenously via the jugular vein and an ED50 (dose necessary to produce 50% of the maximum hypertensive effect) is established (n=3). The ED50 for U46619 is approximately 5 μg/kg. A test compound is then administered either intravenously via the jugular vein or orally via a cannula directly into the stomach and the animal challenged with an ED50 dose of U46619, five minutes after dosing with test compound and then successively every ten minutes until the hypertensive effect of U46619 is no longer blocked.

| Compound | pA2 [1] | ED50 [2] |
| --- | --- | --- |
| O=C(O)CCC/C=C\C[C@@H]1CC[C@H](OCc2ccccc2)C[C@@H]1c1ccccc1 (relative stereo) [Example 16, 5(Z)-7-([1,2,4-cis]-4-benzyloxy-2-phenylcyclohexyl)heptenoic acid] | 5.9 | – |
| CCCCC[C@H](O)/C=C/[C@@H]1[C@@H](C/C=C\CCCC(=O)O)[C@H]2CO[C@@H]1C2 [Example U46619] | – | ~5 µg/kg |

Reference: US4736057A, “Cyclohexane derivatives” (Imperial Chemical Industries PLC, priority 1983, dated 1988)
